According to patent publication US20230226103A1, “COMPOSITION FOR TREATING AND/OR PREVENTING COGNITIVE IMPAIRMENT OR DEMENTIA” (MiZ Company Limited, priority 2018, published 2023):
Several values for one entry are separate records, joined by “and”; a condition that tells them apart may be missing. Equal entries are not always repeated. Where two headings read alike, the source gives them in different places.

What was measured:
[1] = 4% hydrogen gas 15 minutes per day over 4 weeks
Method: (§1) Elderly women living in a community (n=13, 68.0±3.0 years old, body weight: 66.9±10.3 kg, height: 161.1±5.8 cm) volunteered for participants for the present open-label preliminary experiment (registered in ClinicalTrials.gov, NCT02830854). Individuals with a serious disease or a mental disease had been excluded as they met the exclusion criteria. This study was conducted according to the guideline of the Declaration of Helsinki, and the local ethics committee approved the protocol of the present clinical study. The participants all gave informed consent, and were each asked to keep their usual lifestyle and take meals as usual during the study. […] Mini Mental State Examination (MMSE) scores before the initiation of the study and 4 weeks thereafter were used to evaluate the therapeutic effect. In addition, assessment of other cognitive ability markers and evaluation of side effects were conducted based on the results before the initiation of the study and 4 weeks thereafter. The cognitive functions of the participants were evaluated by using the MMSE and the Alzheimer's Disease Assessment Scale-Cognitive subscale (ADAS-Cog). The MMSE is a 30-point questionnaire widely used in clinical practice to determine the degree of cognitive impairment of an elderly individual. The ADAS-Cog is a method, consisting of 11 tasks, of assessing cognitive abilities, and determines memory impairment, language impairment, praxis impairment, attention deficits, and other cognitive abilities to test for dementia. In addition to the assessments, the participants were asked to report adverse events during the study through self-assessment or an open-ended questionnaire on side effects (e.g., queasy feeling, headache). Statistical significance was determined by using a Wilcoxon signed-rank test (before the initiation of the study vs. 4 weeks thereafter). If p≤0.05 was satisfied, the result was considered statistically significant.

[2] = test system: cognitive functions of women aged 65 years or more
Method: as §1

[3] = test system: patients with mild to moderate dementia of the Alzheimer's type; settings: 10 mg donepezil, 24-week (6-month) administration; rating score 0 to 70 points; cited from earlier work

[HH] [H2, hydrogen gas]
Adverse events / side effects associated with inhalation [1]: no sign of side effects | Adverse events / side effects associated with inhalation ([1]; listed as hydrogen gas): no adverse event | ADAS-Cog Language reproduction test After 4 weeks ([2]; 4% H2 inhaled 15 minutes per day over 4 weeks, baseline 3.6 ± 1.0): 8.1 ± 1.2 | ADAS-Cog Language recognition After 4 weeks ([2]; 4% H2 inhaled 15 minutes per day over 4 weeks, baseline 4.2 ± 3.2): 1.1 ± 1.0 | ADAS-Cog Language recognition % change ([2]; after 4 weeks vs baseline): −40.1% | ADAS-Cog Language reproduction test % change ([2]; after 4 weeks vs baseline): 140.0% | MMSE Total score % change ([2]; after 4 weeks vs baseline, 4% H2 inhaled 15 minutes per day): 13.7% and 14.2% | Number of women whose MMSE scores increased ([2]; among 13 women, after administration): 12 | Improvement in ADAS-Cog converted from MMSE (Improvement in MMSE×2.33) ([2]; conversion formula BMC Neurol. 2002, 2:6): 8.16 points | Other 9 items in ADAS-Cog scoring, score ([2]; correctly executed in both tests (baseline and after 4 weeks)): 0 | Cognitive functions (result in words) ([2]; elderly women with mild cognitive impairment, 4% hydrogen gas 15 minutes per day over 4 weeks): improved to normal levels | Improvement in the MMSE ([2]; inhalation of hydrogen gas for a month): 3.50 points

COc1cc2c(cc1OC)C(=O)C(CC1CCN(Cc3ccccc3)CC1)C2 (stereo not shown) [donepezil]
Reduction of ADAS-Cog score from the score at initiation of administration [3]: approximately 1.4 points
